Experimental data: the NIST ThermoML archive (doi:10.1016/j.jct.2012.05.013)

How the values were obtained:
[1] = molar enthalpy of vaporization or sublimation; conditions: 298.15 K; Crystal; Static calorimetry
[2] = Molar enthalpy of transition or fusion; conditions: Crystal; DSC
[3] = for vapor or sublimation pressure: Liquid, Closed cell (Static) method

CN(C)c1cccc2cccc(N(C)C)c12 [1,8-bis(dimethylamino)naphthalene]
Conditions	Molar enthalpy of transition or fusion [kcal/mol]	molar enthalpy [kcal/mol]
[1]	–	22.4
[2]	4.18	–

[3]
Conditions	vapor or sublimation pressure [kPa]
322.96 K	0.00189
327.93 K	0.00285
332.9 K	0.00428
337.88 K	0.00638
342.85 K	0.00921
347.82 K	0.01325
352.78 K	0.01867
357.73 K	0.02622
362.69 K	0.03643
367.65 K	0.0494
372.6 K	0.06696
377.55 K	0.08952
382.51 K	0.1184

Conditions	Triple point temperature [K]
[3], Crystal, DTA	322.2
